Source: US3974268A, “Bone-seeking technetium-99m imidodiphosphonate complex” (priority 1975, dated 1976)
Where two headings read alike, the source gives them in different places.

Key:
[1] = cited from earlier work
[2] = Acute toxicity (LD 50/30) by serial injection of graduated doses; type: in vivo; conditions: mice and rabbits
Protocol: A toxicological study was conducted in both mice and rabbits by serial injection of graduated doses and the acute toxicity of imidodiphosphonate (LD 50/30) was determined to be 45-50 mg imidodiphosphonic acid per kilogram body weight.

[3] = 2 hours, rabbits, derived from Subramanian et al references

Compound	99mTc/85Sr ratio calculated from specific concentrations, Average Bone [1, 3]	99mTc/85Sr ratio calculated from specific concentrations, Blood [1, 3]	99mTc/85Sr ratio calculated from specific concentrations, Femur [1, 3]	99mTc/85Sr ratio calculated from specific concentrations, Kidney [1, 3]	99mTc/85Sr ratio calculated from specific concentrations, Liver [1, 3]	99mTc/85Sr ratio calculated from specific concentrations, Marrow [1, 3]	99mTc/85Sr ratio calculated from specific concentrations, Muscle [1, 3]	99mTc/85Sr ratio calculated from specific concentrations, Pelvis [1, 3]	99mTc/85Sr ratio calculated from specific concentrations, Spine [1, 3]	99mTc/85Sr ratio calculated from specific concentrations, Tibia [1, 3]	also measured
O=P(O)(O)CN(CCN(CP(=O)(O)O)CP(=O)(O)O)CCN(CP(=O)(O)O)CP(=O)(O)O (99mTc complex, metal not drawn) [DTPMP, Diethylene Triamino Penta (Methylene Phosphonate)]											99mTc/85Sr ratio calculated from specific concentrations, Average Bone ([1]; rabbit, in vivo): 0.467; 99mTc/85Sr ratio calculated from specific concentrations, Blood ([1]; rabbit, in vivo): 0.461; 99mTc/85Sr ratio calculated from specific concentrations, Femur ([1]; rabbit, in vivo): 0.419; 99mTc/85Sr ratio calculated from specific concentrations, Kidney ([1]; rabbit, in vivo): 3.82; 99mTc/85Sr ratio calculated from specific concentrations, Liver ([1]; rabbit, in vivo): 0.544; 99mTc/85Sr ratio calculated from specific concentrations, Marrow ([1]; rabbit, in vivo): 0.547; 99mTc/85Sr ratio calculated from specific concentrations, Muscle ([1]; rabbit, in vivo): 0.221; 99mTc/85Sr ratio calculated from specific concentrations, Pelvis ([1]; rabbit, in vivo): 0.627; 99mTc/85Sr ratio calculated from specific concentrations, Spine ([1]; rabbit, in vivo): 0.415; 99mTc/85Sr ratio calculated from specific concentrations, Tibia ([1]; rabbit, in vivo): 0.384
O=P(O)(O)CN(CCCCCCN(CP(=O)(O)O)CP(=O)(O)O)CP(=O)(O)O (99mTc complex, metal not drawn) [HMDTMP, Hexamethylene Diamino Tetra (Methylene Phosphonate)]	0.456	0.703	0.434	7.06	0.855	0.713	0.407	0.516	0.428	0.437	
O=P(O)(O)OP(=O)(O)O [Pyro Phosphate]											99mTc/85Sr ratio calculated from specific concentrations, Average Bone ([1]; rabbit, in vivo): 0.812; 99mTc/85Sr ratio calculated from specific concentrations, Blood ([1]; rabbit, in vivo): 0.703; 99mTc/85Sr ratio calculated from specific concentrations, Femur ([1]; rabbit, in vivo): 0.710; 99mTc/85Sr ratio calculated from specific concentrations, Kidney ([1]; rabbit, in vivo): 2.81; 99mTc/85Sr ratio calculated from specific concentrations, Liver ([1]; rabbit, in vivo): 0.779; 99mTc/85Sr ratio calculated from specific concentrations, Marrow ([1]; rabbit, in vivo): 0.726; 99mTc/85Sr ratio calculated from specific concentrations, Muscle ([1]; rabbit, in vivo): 0.365; 99mTc/85Sr ratio calculated from specific concentrations, Pelvis ([1]; rabbit, in vivo): 0.918; 99mTc/85Sr ratio calculated from specific concentrations, Spine ([1]; rabbit, in vivo): 0.827; 99mTc/85Sr ratio calculated from specific concentrations, Tibia ([1]; rabbit, in vivo): 0.694
Amino Ethylne Diphosphonate [AEDP]	0.648	0.416	0.641	3.71	0.766	0.852	0.135	0.693	0.618	0.641	
Ethylene Hydroxy Diphosphonate [EHDP]	0.832	0.362	0.796	3.53	0.954	0.814	0.172	0.913	0.801	0.798	
Poly Phosphate	0.87	1.48	0.826	9.46	2.61	2.95	0.623	1.01	0.82	0.66	
imidodiphosphonic acid [imidodiphosphonate]											acute toxicity (LD 50/30) [2]: 45-50 mg imidodiphosphonic acid per kilogram body weight
